Laboratory results published in patent US10308607B2, “Fucosidase inhibitors” (HORIZON ORPHAN LLC, priority 2015, dated 2019).
Several values for one entry are separate records, joined by “and”; a condition that tells them apart may be missing. Identical values can stand only once.

Key:
[1] = target: rhFUCA1 (Homo sapiens (Human), UniProt P04066); test: In vitro fucosidase inhibition (4MU-FUC fluorescence); assay type: biochemical; settings: 1 ng/mL rhFUCA1, 640 nM 4MU-FUC, pH 4.5, 37° C., 30 minutes
Description: Fucosidase inhibition was assessed by preparing a reaction mixture of 50 mM phosphate-citrate pH 4.5, 5 mM MgCl2, 640 nM 4-methylumbelliferyl-alpha-L-fucopyranoside (4MU-FUC), 1 ng/mL rhFUCA1 (R&D Systems), and compound II, III, or IV:
Reactions (100 μL) were incubated at 37° C. for 30 minutes and then quenched with the same volume of 600 mM citrate-carbonate buffer, pH 9. Fluorescence was measured by excitation at 360 nm and emission at 450 nm.

[2] = system: A549; test: Multiplexed cytotoxicity assay; assay type: cell-based; settings: A549, lung carcinoma, 72 hour
Description: (§1) To assess the cytotoxicity of compound II (see Example 2) in cancer and normal cells, the cells were grown in RPMI1640, 10% FBS, 2 mM L-alanyl-L-Glutamine, 1 mM Na Pyruvate or a special medium in a humidified atmosphere of 5% CO2 at 37° C. Cells were seeded into 384-well plates and incubated in a humidified atmosphere of 5% CO2 at 37° C. Compound II was added 24 hours post cell seeding. At the same time, a time zero untreated cell plate was generated.
(§2) After a 72 hour incubation period, cells were fixed and stained with fluorescently labeled antibodies and nuclear dye to allow visualization of nuclei, apoptotic cells and mitotic cells. Apoptotic cells were detected using an anti-active caspase-3 antibody. Mitotic cells were detected using an anti phospho-histone-3 antibody.
(§3) Compound II was serially diluted 3.16-fold and assayed over 9 concentrations. Automated fluorescence microscopy was carried out using a GE Healthcare IN Cell Analyzer 1000, and images were collected with a 4× objective.
(§4) Twelve bit tiff images were acquired using the InCell Analyzer 1000 3.2 and analyzed with Developer Toolbox 1.6 software. EC50 and IC50 values were calculated using nonlinear regression to fit data to a sigmoidal 4 point, 4 parameter One-Site dose response model, where: y (fit)=A+[(B−A)/(1+((C/x)^D))]. Curve-fitting, EC50/IC50 calculations and report generation are performed using a custom data reduction engine MathIQ based software (AIM).
(§5) The multiplexed cytotoxicity assay uses a cell image based analysis technique where cells are fixed and stained with fluorescently labeled antibodies and nuclear dye to visualize nuclei, and apoptotic and mitotic cells. Apoptotic cells are detected using an anti-active caspase-3 antibody. Mitotic cells are detected using an anti phospho-histone-3 antibody. Cell proliferation is measured by the signal intensity of the incorporated nuclear dye. The cell proliferation assay output is referred to as the relative cell count. To determine the cell proliferation end point, the cell proliferation data output is transformed to percent of control (POC) using the following formula: POC=relative cell count(compound wells)/relative cell count(vehicle wells)×100.
(§6) Relative cell count IC50 is the test compound concentration at 50% of maximal possible response. A relative cell count EC50 is the test compound concentration at the curve inflection point or half the effective response (parameter C of the fitted curve solution). GI50 is the concentration needed to reduce the observed growth by half. This is the concentration that inhibits the growth midway between untreated cells and the number of cells seeded in the well (Time zero value).
(§7) The activated caspase-3 marker labels cells from early to late stage apoptosis. The output is shown as a fold increase of apoptotic cells over vehicle background normalized to the relative cell count in each well. Concentrations of test compound that cause a 5-fold induction in the caspase-3 signal indicates significant apoptosis induction. Wells with concentrations higher than the relative cell count IC95 are eliminated from the caspase3 induction analysis.
(§8) The phospho-histone-3 marker labels mitotic cells. The output is shown as a fold induction of mitotic cells over vehicle background normalized to the relative cell count in each well. When the fold induction of mitotic cell signal over background is ˜1, there is “no effect” on the cell cycle. Two or more fold increase in phospho-histone-3 signal over vehicle background indicates significant test compound induction of mitotic block.
(§9) Two or more fold decrease in the phospho-histone-3 signal may indicate G1/S block only when cytotoxicity levels are below the measured relative cell count IC95. […]

[3] = system: BxPC-3; test: Multiplexed cytotoxicity assay; assay type: cell-based; settings: BxPC-3, pancreas carcinoma, 72 hour
Description: as §1, §2, §3, §4, §5, §6, §7, §8, §9

[4] = system: HPH; test: Multiplexed cytotoxicity assay; assay type: cell-based; settings: normal primary hepatocyte, 72 hour
Description: as §1, §2, §3, §4, §5, §6, §7, §8, §9

[5] = system: HT-1080; test: Multiplexed cytotoxicity assay; assay type: cell-based; settings: HT-1080, connective sarcoma, 72 hour
Description: as §1, §2, §3, §4, §5, §6, §7, §8, §9

[6] = system: U-87 MG; test: Multiplexed cytotoxicity assay; assay type: cell-based; settings: brain blastoma, 72 hour
Description: as §1, §2, §3, §4, §5, §6, §7, §8, §9

[7] = Biodistribution in mouse liver and colon; assay type: in vivo; settings: for Conc. of cmpd II in colon / Mean conc. of cmpd II in colon: mouse colon; for Conc. of cmpd II in colon / Conc. of cmpd II in liver: individual animal; for Conc. of cmpd II in liver / Mean conc. of cmpd II in liver: mouse liver
Description: To assess the biodistribution of compound II (see Example 2) in mouse liver and colon, compound II was administered intravenously at a dosage of 1 mg/kg.

[8] = system: human hepatocarcinoma cell line HepG2; test: Orthotopic model of human hepatocellular carcinoma; assay type: in vivo, nude mice
Description: To assess the compounds in vivo, an orthotopic model of human hepatocellular carcinoma was used. The orthotopic tumor model was generated by implanting human hepatocarcinoma cell line HepG2 into nude mice and allowing the tumor cells to grow in vivo.
The efficacy study was carried out using 10 mice per group and two dosage regimens. Compound II (see Example 2) was administered by oral gavage (po) at a dosage of 175 mg/kg once daily for 3 weeks (QDx21) or at a dosage of 87.5 mg/kg twice daily for 3 weeks (BIDx21). Vehicle (100 μL) was administered to control animals.

[9] = 87.5 mg/kg po twice daily (BIDx21), Day 0
[10] = 87.5 mg/kg po twice daily (BIDx21), Day 2
[11] = 87.5 mg/kg po twice daily (BIDx21), Day 5
[12] = 87.5 mg/kg po twice daily (BIDx21), Day 9
[13] = 87.5 mg/kg po twice daily (BIDx21), Day 12
[14] = 87.5 mg/kg po twice daily (BIDx21), Day 16
[15] = 87.5 mg/kg po twice daily (BIDx21), Day 20
[16] = 175 mg/kg po once daily (QDx21), Day 0
[17] = 175 mg/kg po once daily (QDx21), Day 2
[18] = 175 mg/kg po once daily (QDx21), Day 5
[19] = 175 mg/kg po once daily (QDx21), Day 9
[20] = 175 mg/kg po once daily (QDx21), Day 12
[21] = 175 mg/kg po once daily (QDx21), Day 16
[22] = 175 mg/kg po once daily (QDx21), Day 20

Chain of rhFUCA1 (P04066 32-466): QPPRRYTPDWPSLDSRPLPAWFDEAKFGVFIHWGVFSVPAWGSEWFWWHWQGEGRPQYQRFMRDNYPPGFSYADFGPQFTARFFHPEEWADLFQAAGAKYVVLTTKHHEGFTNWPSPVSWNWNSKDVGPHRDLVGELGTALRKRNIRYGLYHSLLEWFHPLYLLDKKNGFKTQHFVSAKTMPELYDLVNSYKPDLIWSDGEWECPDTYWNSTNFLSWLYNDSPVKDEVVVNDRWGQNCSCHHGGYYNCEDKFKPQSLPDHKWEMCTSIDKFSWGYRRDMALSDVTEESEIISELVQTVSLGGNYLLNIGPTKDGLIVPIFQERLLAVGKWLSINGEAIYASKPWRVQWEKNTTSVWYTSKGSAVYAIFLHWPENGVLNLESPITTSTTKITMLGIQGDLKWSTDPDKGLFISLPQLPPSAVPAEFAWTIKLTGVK

IC50 [1]: 16 nM
Conc. of cmpd II in colon ([7]; IV 1 mg/kg qdx1, 1 h): 1770 ng/g and 1640 ng/g and 1930 ng/g
Mean conc. of cmpd II in colon ([7]; IV 1 mg/kg qdx1, 1 h): 1780 ng/g
Conc. of cmpd II in colon ([7]; IV 1 mg/kg qdx1, 8 h): 638 ng/g and 289 ng/g and 872 ng/g
Mean conc. of cmpd II in colon ([7]; IV 1 mg/kg qdx1, 8 h): 600 ng/g
Conc. of cmpd II in liver ([7]; IV 1 mg/kg qdx1, 1 h): 298 ng/g and 301 ng/g and 188 ng/g
Mean conc. of cmpd II in liver ([7]; IV 1 mg/kg qdx1, 1 h): 262 ng/g
Conc. of cmpd II in liver ([7]; IV 1 mg/kg qdx1, 8 h): 9.03 ng/g and 7.64 ng/g and 12.9 ng/g
Mean conc. of cmpd II in liver ([7]; IV 1 mg/kg qdx1, 8 h): 9.86 ng/g
Compound: C[C@@H]1N[C@H](CNC(=O)c2cccc3c2C(=O)c2ccccc2-3)[C@@H](O)[C@H](O)[C@@H]1O [Compound II]
G1/S arrest [2]: 21 µM
G1/S arrest [3]: 55 µM
Primary effect [4]: no effect
G1/S arrest [5]: 78 µM
G1/S arrest [6]: 26 µM
Body Weight [8, 9]: 22.45 g
Tumor Volume [8, 9]: 212 mm^3
Body Weight [8, 10]: 22.05 g
Tumor Volume [8, 10]: 224 mm^3
Body Weight [8, 11]: 21.93 g
Tumor Volume [8, 11]: 227 mm^3
Body Weight [8, 12]: 21.58 g
Tumor Volume [8, 12]: 247 mm^3
Body Weight [8, 13]: 21.51 g
Tumor Volume [8, 13]: 270 mm^3
Body Weight [8, 14]: 20.39 g
Tumor Volume [8, 14]: 326 mm^3
Body Weight [8, 15]: 20.86 g
Tumor Volume [8, 15]: 320 mm^3
Body Weight [8, 16]: 22.93 g
Tumor Volume [8, 16]: 211 mm^3
Body Weight [8, 17]: 22.94 g
Tumor Volume [8, 17]: 238 mm^3
Body Weight [8, 18]: 22.28 g
Tumor Volume [8, 18]: 277 mm^3
Body Weight [8, 19]: 22.1 g
Tumor Volume [8, 19]: 320 mm^3
Body Weight [8, 20]: 22.26 g
Tumor Volume [8, 20]: 348 mm^3
Body Weight [8, 21]: 20.58 g
Tumor Volume [8, 21]: 364 mm^3
Body Weight [8, 22]: 19.98 g
Tumor Volume [8, 22]: 416 mm^3
